This passage reports IC50 and Ki results from ChEMBL document CHEMBL5226288, “A perspective on medicinal chemistry approaches towards adenomatous polyposis coli and Wnt signal based colorectal cancer inhibitors” (Eur J Med Chem, 2021).

Non-standard residues stand in square brackets, D forms with d. Residues, ends and D or L forms follow the SMILES beside them. *: point of attachment. Ala(cPent) = N[C@@H](CC1CCCC1)C(=O)O; Cbz = O=C(OCc1ccccc1)*

Assay [1] has as its system DLD-1. The assay is described as follows: Anticancer activity against human DLD-1 cells assessed as reduction in cell viability incubated for 24 hrs by Cell Titer-Glo assay. It counts as functional, cell-based. The following applies: DLD-1, 24 h.
The test system of assay [2] is HCT-116. Nature of the assay: Anticancer activity against human HCT-116 cells assessed as reduction in cell viability incubated for 24 hrs by Cell Titer-Glo assay. Type of assay: functional, cell-based. The following applies: HCT-116, 24 h. On the technique in general: Cellular ATP, detected with luciferase, serves as a proxy for viable cell number.
Assay [3] addresses 3-beta-hydroxysteroid-Delta(8),Delta(7)-isomerase (Homo sapiens, UniProt Q15125). Nature of the assay: Inhibition of EBP (unknown origin).
In assay [4] the target is T1, 7-dehydrocholesterol reductase (Homo sapiens, UniProt Q9UBM7).
T1 sequence (Q9UBM7 whole entry): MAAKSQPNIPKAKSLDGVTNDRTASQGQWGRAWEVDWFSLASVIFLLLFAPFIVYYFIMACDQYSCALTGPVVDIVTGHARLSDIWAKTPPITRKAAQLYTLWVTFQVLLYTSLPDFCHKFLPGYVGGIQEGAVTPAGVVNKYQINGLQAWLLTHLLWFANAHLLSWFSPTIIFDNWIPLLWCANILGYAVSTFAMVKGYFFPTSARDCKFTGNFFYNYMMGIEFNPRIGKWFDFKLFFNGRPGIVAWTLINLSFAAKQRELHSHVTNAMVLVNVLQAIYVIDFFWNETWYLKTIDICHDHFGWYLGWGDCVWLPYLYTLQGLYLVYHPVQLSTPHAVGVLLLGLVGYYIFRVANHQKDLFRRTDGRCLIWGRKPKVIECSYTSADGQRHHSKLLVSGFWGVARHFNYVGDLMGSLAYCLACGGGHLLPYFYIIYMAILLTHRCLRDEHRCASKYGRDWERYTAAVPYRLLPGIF
Nature of the assay: Inhibition of DHCR7 (unknown origin).

The test system of assay [5] is HCT-116. Nature of the assay: Anticancer activity against human HCT-116 cells assessed as reduction in cell viability. It counts as functional, cell-based.
Assay [6] concerns the target T2, Adenomatous polyposis coli protein (Homo sapiens, UniProt P25054). Nature of the assay: Inhibition of APC (303 to 739 residues) (unknown origin) preincubated for 60 mins followed by substrate addition and measured after 60 mins using Ac-GGGGEQLAINELISDGK-FITC as substrate by fluorescence polarization assay.
Assay [7] concerns the target T2, Adenomatous polyposis coli protein. Nature of the assay: Inhibition of APC (303 to 739 residues) (unknown origin) assessed as inhibition constant preincubated for 60 mins followed by substrate addition and measured after 60 mins using Ac-GGGGEQLAINELISDGK-FITC as substrate by fluorescence polarization assay. Background: Polarisation of emitted light reports the rotation of a fluorescent probe.

Assay [8] is described as follows: Inhibition of Wnt/beta-catenin signaling pathway in mouse L Wnt-3A cells harbouring STF-reporter gene assessed as assessed as reduction in luciferase activity incubated for 24 hrs by luciferase reporter assay. Type of assay: cell-based. Background: Reporter assays use an easily measured gene product as a stand-in for the process of interest.
Assay [9] deals with HCT-116. The assay is described as follows: Antiproliferative activity against human HCT-116 cells assessed as reduction in cell proliferation incubated for 72 hrs by MTS assay. The following applies: HCT-116, 72 h. Type of assay: functional, cell-based.
Another assay concerns the target DNA polymerase beta (Homo sapiens, UniProt P06746). Nature of the assay: Inhibition of human DNA polymerase beta using 32P-labeled 63-mer F-DNA substrate preincubated for 5 mins followed by substrate addition and measured after 45 mins by autoradiography.
Assay [10] concerns SW480. The assay is described as follows: Anticancer activity against human SW480 cells assessed as reduction in cell viability. Type of assay: functional, cell-based.
Assay [11] has as its system DLD-1. Nature of the assay: Anticancer activity against human DLD-1 cells assessed as cell growth inhibition by SRB assay. It counts as functional, cell-based.
Assay [12] has as its system SW480. The assay is described as follows: Anticancer activity against human SW480 cells assessed as cell growth inhibition by SRB assay. Type of assay: functional, cell-based.

Chain of 3-beta-hydroxysteroid-Delta(8),Delta(7)-isomerase (Q15125 whole entry): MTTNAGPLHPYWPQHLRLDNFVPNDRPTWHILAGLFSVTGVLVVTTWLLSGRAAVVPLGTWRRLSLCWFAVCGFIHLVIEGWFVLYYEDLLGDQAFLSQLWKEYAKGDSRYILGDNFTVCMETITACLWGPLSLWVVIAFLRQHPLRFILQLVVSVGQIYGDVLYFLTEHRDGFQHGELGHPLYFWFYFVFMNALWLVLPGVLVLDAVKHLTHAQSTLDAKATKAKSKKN
T2 sequence (P25054 whole entry, the tested form may be a part): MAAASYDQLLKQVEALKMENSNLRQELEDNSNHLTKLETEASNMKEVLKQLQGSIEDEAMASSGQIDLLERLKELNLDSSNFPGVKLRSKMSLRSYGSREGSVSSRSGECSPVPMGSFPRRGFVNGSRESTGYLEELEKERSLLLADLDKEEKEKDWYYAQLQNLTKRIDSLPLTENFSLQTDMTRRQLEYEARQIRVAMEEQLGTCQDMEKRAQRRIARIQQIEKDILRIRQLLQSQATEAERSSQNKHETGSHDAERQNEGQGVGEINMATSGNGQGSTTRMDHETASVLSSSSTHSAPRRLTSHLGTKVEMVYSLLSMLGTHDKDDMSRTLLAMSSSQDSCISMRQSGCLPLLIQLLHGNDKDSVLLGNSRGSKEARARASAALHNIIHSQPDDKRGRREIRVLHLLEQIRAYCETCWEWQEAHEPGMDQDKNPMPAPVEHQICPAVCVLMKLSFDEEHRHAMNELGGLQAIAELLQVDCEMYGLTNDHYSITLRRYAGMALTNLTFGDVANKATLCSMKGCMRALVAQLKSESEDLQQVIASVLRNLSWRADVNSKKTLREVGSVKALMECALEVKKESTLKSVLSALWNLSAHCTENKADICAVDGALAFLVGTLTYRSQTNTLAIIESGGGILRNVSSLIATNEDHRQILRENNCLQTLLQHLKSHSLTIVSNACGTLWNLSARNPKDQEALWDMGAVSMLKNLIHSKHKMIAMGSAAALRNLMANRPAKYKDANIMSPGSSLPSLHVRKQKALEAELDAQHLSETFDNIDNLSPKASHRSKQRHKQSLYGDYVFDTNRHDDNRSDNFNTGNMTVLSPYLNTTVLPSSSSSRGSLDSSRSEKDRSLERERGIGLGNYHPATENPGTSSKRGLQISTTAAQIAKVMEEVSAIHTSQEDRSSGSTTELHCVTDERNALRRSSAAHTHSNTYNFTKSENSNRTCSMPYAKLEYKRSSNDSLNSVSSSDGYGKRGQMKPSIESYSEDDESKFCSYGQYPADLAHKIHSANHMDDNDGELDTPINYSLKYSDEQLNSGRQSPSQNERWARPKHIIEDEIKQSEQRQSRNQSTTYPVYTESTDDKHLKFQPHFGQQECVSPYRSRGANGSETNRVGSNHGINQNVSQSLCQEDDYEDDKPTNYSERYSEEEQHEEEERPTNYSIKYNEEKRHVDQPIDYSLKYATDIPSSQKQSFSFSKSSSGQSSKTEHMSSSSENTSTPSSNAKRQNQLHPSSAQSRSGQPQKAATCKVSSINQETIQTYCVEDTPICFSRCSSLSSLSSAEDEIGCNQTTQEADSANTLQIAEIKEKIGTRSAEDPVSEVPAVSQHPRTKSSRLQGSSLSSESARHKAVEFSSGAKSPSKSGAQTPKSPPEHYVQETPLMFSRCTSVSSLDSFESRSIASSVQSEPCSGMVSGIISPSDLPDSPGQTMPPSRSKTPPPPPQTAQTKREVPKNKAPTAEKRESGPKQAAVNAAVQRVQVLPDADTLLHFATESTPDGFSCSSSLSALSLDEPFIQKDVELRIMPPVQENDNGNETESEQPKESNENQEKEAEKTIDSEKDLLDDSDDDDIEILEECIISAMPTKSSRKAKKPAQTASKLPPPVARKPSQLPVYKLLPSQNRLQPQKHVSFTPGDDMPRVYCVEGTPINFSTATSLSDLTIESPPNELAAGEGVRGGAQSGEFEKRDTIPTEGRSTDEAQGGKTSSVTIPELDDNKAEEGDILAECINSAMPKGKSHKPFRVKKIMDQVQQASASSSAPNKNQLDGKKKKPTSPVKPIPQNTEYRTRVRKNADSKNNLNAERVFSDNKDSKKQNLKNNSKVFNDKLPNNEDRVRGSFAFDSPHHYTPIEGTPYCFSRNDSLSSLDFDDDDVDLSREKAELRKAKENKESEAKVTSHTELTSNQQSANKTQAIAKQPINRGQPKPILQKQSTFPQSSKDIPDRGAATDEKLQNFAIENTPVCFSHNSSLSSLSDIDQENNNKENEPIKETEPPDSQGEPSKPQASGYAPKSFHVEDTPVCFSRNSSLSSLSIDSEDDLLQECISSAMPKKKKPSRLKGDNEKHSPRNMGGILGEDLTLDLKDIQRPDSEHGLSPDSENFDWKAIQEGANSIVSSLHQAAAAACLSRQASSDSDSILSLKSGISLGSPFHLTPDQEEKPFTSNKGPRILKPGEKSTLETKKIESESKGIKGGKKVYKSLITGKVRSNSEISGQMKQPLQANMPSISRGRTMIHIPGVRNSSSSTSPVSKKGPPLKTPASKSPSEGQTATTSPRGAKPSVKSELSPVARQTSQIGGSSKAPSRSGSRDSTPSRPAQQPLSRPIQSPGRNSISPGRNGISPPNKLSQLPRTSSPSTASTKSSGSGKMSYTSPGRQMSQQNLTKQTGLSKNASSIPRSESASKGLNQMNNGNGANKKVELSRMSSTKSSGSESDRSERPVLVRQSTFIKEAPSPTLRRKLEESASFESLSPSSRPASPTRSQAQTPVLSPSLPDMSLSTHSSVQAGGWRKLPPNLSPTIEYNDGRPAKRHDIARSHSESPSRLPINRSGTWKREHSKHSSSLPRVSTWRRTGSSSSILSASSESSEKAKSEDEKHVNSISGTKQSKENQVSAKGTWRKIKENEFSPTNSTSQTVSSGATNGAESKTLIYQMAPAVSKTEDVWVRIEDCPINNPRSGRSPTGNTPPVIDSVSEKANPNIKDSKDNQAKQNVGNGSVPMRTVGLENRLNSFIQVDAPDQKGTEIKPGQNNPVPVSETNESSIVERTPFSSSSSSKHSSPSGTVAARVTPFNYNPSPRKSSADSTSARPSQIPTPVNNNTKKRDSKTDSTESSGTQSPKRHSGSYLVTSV

A word on the IC50: it is the point on the concentration scale where inhibition reaches its midpoint. On to `N#CC(=C(/N)Sc1ccccc1N)/C(C#N)=C(\N)Sc1ccccc1N`, for which the IC50 in the assay on DLD-1 [1] worked out at 1140 nM; with HCT-116 [2] it was 940 nM.
Consider `CC1CCN(C2CCN(S(=O)(=O)c3ccc(OC(C)C)cc3)CC2)CC1`, for which the concentration for half-maximal inhibition (IC50) in [3] was < 1000 nM; in assay [4] it was 30 nM.
On to `Cn1cnc2c(F)c(Nc3ccc(Br)cc3Cl)c(C(=O)NOCCO)cc21` [SELUMETINIB], for which the IC50 with DLD-1 [1] is 1250 nM; in the assay on HCT-116 [2], 950 nM.
Turning to `NC1=NC(=O)N(C2CC(O)C(COP(=O)(O)O)O2)C(I)C1` (configuration not stated), the IC50 in the assay on HCT-116 [5] was < 50000 nM.
For `Cc1ccc(-c2ccc(S(=O)(=O)N3CCC(N4CCC(C)CC4)CC3)cc2)cc1`, the values for the IC50 in [3] and in assay [4] were 49 nM and 0.1 nM, respectively.
The term Ki denotes the equilibrium dissociation constant of an inhibitor or competing ligand from its target. The compound Ac-GGEALAD-OH gave a half-inhibitory concentration (IC50) in assay [6] of 12200 nM. Further, the inhibition constant (Ki) in [7] amounted to 3800 nM.
Regarding `Cc1ccc(-n2nc(C(=O)NCC(=O)Nc3nc4ccc(C)cc4s3)c3c(c2=O)SCC3)cc1`, in assay [8], the 50% inhibitory concentration (IC50) is 25 nM.
As for `COc1c(C[C@@H](C)OC(=O)Oc2ccc(O)cc2)c2c3c(C[C@@H](C)OC(=O)c4ccccc4)c(OC)c(=O)c4c(O)cc(OC)c(c5c(OC)cc(O)c(c1=O)c52)c43` [CALPHOSTIN C], the concentration for half-maximal inhibition (IC50) in the assay on HCT-116 [9] came to 2860 nM.
For the compound `Cc1cc(SC(=O)O)c(S(=O)(=O)Nc2n[nH]c(Nc3ccccc3)n2)cc1C`, at DNA polymerase beta, the half-maximal inhibitory concentration (IC50) was < 50000 nM.
Turning to `CCOC(=O)C[C@H](NC(=O)[C@H](Cc1c[nH]c2ccccc12)NC(=O)Cc1cc2cc(C)ccc2[nH]1)C(=O)N[C@@H](CCC(=O)O)C(=O)OC`, the half-maximal inhibitory concentration (IC50) was 10800 nM in the assay on SW480 [10] and 28800 nM with HCT-116 [5].
As to `Cn1ncnc2c(=O)n(C)c(=O)nc1-2`, the half-inhibitory concentration (IC50) in the assay with HCT-116 [9] turned out to be 2860 nM.
Take `COC(=O)c1cccc(NS(=O)(=O)c2ccc(C)cc2)c1`: in the assay with HCT-116 [5], the concentration for half-maximal inhibition (IC50) was 580 nM.
In assay [6], `C[C@H](NC(=O)OCc1ccccc1)C(=O)NCC(=O)N[C@@H](CCC(=O)O)C(=O)N[C@@H](C)C(=O)N[C@@H](CC1CCCC1)C(=O)N[C@@H](Cc1ccc(O)cc1)C(=O)N[C@@H](CCC(=O)O)C(=O)O` (Cbz-AGEA[Ala(cPent)]YE-OH) gave an IC50 of 570 nM. For the same compound, in [7], the inhibitory constant (Ki) is 15 nM.
In [6], H-GGEQLAI-OH displayed a half-inhibitory concentration (IC50) of 135000 nM. Also, the Ki in [7] turned out to be 44600 nM.
Regarding Ac-AGEALAD-OH, the 50% inhibitory concentration (IC50) in assay [6] came out at 7970 nM. For the same compound, the Ki in assay [7] stood at 2410 nM.
In assay [6], `CC(C)C[C@H](NC(=O)[C@H](C)NC(=O)[C@H](CCC(=O)O)NC(=O)CNC(=O)[C@H](C)NC(=O)OCc1ccccc1)C(=O)N[C@@H](Cc1ccc(O)cc1)C(=O)N[C@@H](CCC(=O)O)C(=O)O` (Cbz-AGEALYE-OH) showed an IC50 of 1090 nM. In [7], the Ki turned out to be 120 nM.
On to `Cc1cc(C)c(S(=O)(=O)N2CCC(N3CCCCCC3)CC2)c(C)c1`, for which the concentration for half-maximal inhibition (IC50) in assay [3] was 9.36 nM; in assay [4] it was 1390 nM.
Turning to `Cn1nnc2c(C(N)=O)ncn2c1=O` [TEMOZOLOMIDE], the IC50 in the assay with HCT-116 [5] is < 50000 nM.
As to `Cc1cc(C(=O)N/N=C\c2ccccc2O)c2cc(Br)ccc2n1`, the IC50 in the assay on DLD-1 [11] was determined as 1000 nM; in the assay on SW480 [12], 600 nM.
In turn, Ac-GGEALAW-OH displayed an IC50 in assay [6] of 10100 nM. Moreover, the Ki in assay [7] was 3120 nM.
As for `Cc1cc(C)c(S(=O)(=O)N2CCC([N+]3(C)CCCC3)CC2)c(C)c1`, the half-inhibitory concentration (IC50) was determined as 303 nM in [3] and 50000 nM in [4].
On to `Cc1cc(C)c(S(=O)(=O)Nc2n[nH]c(Nc3ccc4ccccc4c3)n2)cc1C`, for which the half-inhibitory concentration (IC50) against DNA polymerase beta was < 50000 nM.
With `COc1ccc(-n2nc(C(=O)NCC(=O)Nc3nc4ccc(OC)cc4s3)c3ccccc3c2=O)cc1`, in assay [8], the IC50 worked out at 58 nM.
As to `O=C1Nc2ccccc2C12OCC1(CO2)COC2(OC1)C(=O)Nc1ccccc12` (configuration not stated), in the assay with SW480 [10], the IC50 was 690 nM.
In the case of `CC(=O)Nc1cccc(-n2c(=O)n(C3CC3)c(=O)c3c(Nc4ccc(I)cc4F)n(C)c(=O)c(C)c32)c1` [TRAMETINIB], the half-maximal inhibitory concentration (IC50) stood at 1340 nM in the assay on DLD-1 [1] and 1160 nM with HCT-116 [2].
On to `COc1ccccc1-n1nc(C(=O)NCC(=O)Nc2nc3ccc(C)cc3s2)c2c(c1=O)SCC2`, for which the IC50 in [8] was found to be 40 nM.
As to `CCCC(=O)c1cc2c(c(O)c1C)C(=O)C(=O)c1c(O)cccc1-2`, the 50% inhibitory concentration (IC50) in the assay on HCT-116 [9] worked out at 780 nM.
As for `CN1CCN(S(=O)(=O)c2ccc(N3CCCC3=O)cc2)c2ccccc21`, the values for the IC50 in the assay with SW480 [10] and in the assay with HCT-116 [5] were 15 nM and 8 nM, respectively.
Regarding `CC/C(=N/NC(=O)c1ccccc1)c1cc(C)cc(C)c1O`, the figures for the IC50 with DLD-1 [11] and in the assay with SW480 [12] were 900 nM and 1700 nM, respectively.
As to `COC(=O)c1c(C)cc2c(c1O)[C@]1(O)C(=O)c3cc4c(c(O)c3C(=O)[C@]1(OC)[C@H](O)C2)C(=O)C=C(N[C@H]1O[C@@H](C)[C@H](OC)[C@@H](O)[C@H]1OC)C4=O`, in the assay with HCT-116 [9], the IC50 was < 150 nM.
As to `Cc1cc(C)c(S(=O)(=O)N2CCC(N3CN4CCC3CC4)CC2)c(C)c1`, the half-maximal inhibitory concentration (IC50) came out at 188 nM in assay [3] and 2040 nM in assay [4].
In the case of `CC/C(=N/NC(=O)c1ccnc(NCCN2CCOCC2)c1)c1ccc(C)cc1O`, the half-inhibitory concentration (IC50) was 500 nM in the assay with DLD-1 [11] and 900 nM in the assay on SW480 [12].
On to `Cc1cc(C)c(S(=O)(=O)N2CCC(NCc3ccccc3)CC2)c(C)c1`, for which the IC50 in assay [3] turned out to be 2.95 nM; in [4], 1070 nM.
For `COc1cccc(Nc2nc(NS(=O)(=O)c3cc(C)c(C)cc3C)n[nH]2)c1`, at DNA polymerase beta, the IC50 is < 50000 nM.
Same read-out and setting: for `Cc1cc(C)c(S(=O)(=O)Nc2n[nH]c(Nc3ccccc3)n2)cc1C` the value was < 50000 nM.
Consider `COc1c(C[C@@H](C)OC(=O)c2c(C)cc(O)cc2O)c2c3c(C[C@@H](C)OC(=O)c4c(C)cc(O)cc4O)c(OC)c(=O)c4c(O)cc(OC)c(c5c(OC)cc(O)c(c1=O)c52)c43`, for which the half-inhibitory concentration (IC50) in the assay with HCT-116 [9] amounted to 3600 nM.
Turning to `Cc1ccc2nc(NC(=O)CNC(=O)c3nn(-c4ccccc4)c(=O)c4c3CCS4)sc2c1`, the half-inhibitory concentration (IC50) in assay [8] came out at 27 nM.
